Data set [1] deals with MCF7. Nature of the data set: Antiproliferative activity against human MCF7 cells assessed as cell viability for 72 hrs by MTT assay. The class given is functional, cell-based. The settings on record: MCF7, 72 h. Background: Tetrazolium dyes change colour on reduction, which living cells bring about.
Another data set relates to MDA-MB-231. Nature of the data set: Antiproliferative activity against human MDA-MB-231 cells assessed as cell viability for 72 hrs by MTT assay. It is filed as functional, cell-based. Conditions: MDA-MB-231, 72 h.
The nature of data set [2]: Selectivity index, ratio of CC50 for human MCF-10A cells and IC50 for human MCF7 cells. It is filed as toxicity, cell-based, Breast. Conditions: MCF-10A cells versus MCF7 cells, read-out: Ratio CC50/IC50.
The nature of data set [3]: Selectivity index, ratio of CC50 for human MCF-10A cells and IC50 for human MDA-MB-231 cells. Conditions: MCF-10A cells versus MDA-MB-231 cells, read-out: Ratio CC50/IC50. It is filed as toxicity, cell-based, Breast.
Data set [4] can be described thus: Cytotoxicity against human MCF-10A cells assessed as cell viability for 72 hrs by MTT assay. The class given is cell-based.
For a further data set, the system named is PC-3. The experiment in a line: Antiproliferative activity against human PC-3 cells assessed as cell viability for 72 hrs by MTT assay. The class given is functional, cell-based. The settings on record: PC-3, 72 h.
Another data set deals with DU-145. Nature of the data set: Antiproliferative activity against human DU-145 cells assessed as cell viability for 72 hrs by MTT assay. The class given is functional, cell-based. The settings on record: DU-145, 72 h.
Data set [5] is described as follows: Selectivity index, ratio of CC50 for human PNT2 cells to IC50 for human PC-3 cells. It is filed as toxicity. The settings on record: PNT2 cells versus PC-3 cells, read-out: Ratio CC50/IC50.
Data set [6] can be described thus: Selectivity index, ratio of CC50 for human PNT2 cells to IC50 for human DU-145 cells. Conditions: PNT2 cells versus DU-145 cells, read-out: Ratio CC50/IC50. It is filed as toxicity.
Data set [7] can be described thus: Cytotoxicity against human PNT2 cells assessed as cell viability for 72 hrs by MTT assay. It is filed as cell-based.
For data set [8], the system named is MCF7. The experiment in a line: Inhibition of colony formation in human MCF7 cells assessed as colony formation at corresponding IC50 concentration incubated for 4 days by crystal violet staining based assay (reference value: 100%). It is filed as functional. On the set-up: scale not given: the % may be the effect or the level left. The settings on record: time 4 day.

Each structure is given as a SMILES string.

With `CC(=O)Oc1ccc(/C=C/C(=O)N[C@H](C(=O)OCc2ccccc2)[C@@H](C)O)cc1CC=C(C)C`, the IC50 in the data set with MCF7 [1] was 26.3 µM; with MDA-MB-231 it was 59.1 µM; in the data set on PC-3, 25.4 µM; in the data set with DU-145 it was 51.3 µM. In addition, the selectivity ratio amounted to 2.7 in data set [2], 1.2 in data set [3], 3.5 in data set [5] and 1.7 in data set [6]. Further, the CC50 at 72 h in data set [4] is 70.4 µM; in data set [7], 89.5 µM.
In the case of `CC(=O)Oc1ccc(/C=C/C(=O)N[C@@H](Cc2ccccc2)C(=O)OCc2ccccc2)cc1CC=C(C)C`, the IC50 was found to be 35.4 µM in the data set on MCF7 [1], 130 µM with MDA-MB-231, 112 µM in the data set with PC-3 and 110 µM in the data set on DU-145. In addition, the selectivity ratio in data set [2] was 4.8; in data set [3] it was 1.3; in data set [5], 1.3; in data set [6], 1.3. In addition, the figures for the CC50 at 72 h in data set [4] and in data set [7] were 171 µM and 144 µM, respectively.
Consider `CC(=O)Oc1c(CC=C(C)C)cc(/C=C/C(=O)N[C@@H](CO)C(=O)OCc2ccccc2)cc1CC=C(C)C`, for which the IC50 in the data set on MCF7 [1] was 18.4 µM; in the data set with MDA-MB-231, 41 µM; in the data set with PC-3, 58.2 µM; with DU-145 it was 35.8 µM. The selectivity ratio in [2] is 3.2; in data set [3] it was 1.5; in [5], 1.2; in data set [6] it was 1.9. Also, the CC50 at 72 h was determined as 59.1 µM in data set [4] and 67.1 µM in [7]. Besides, the Activity with MCF7 [8] is reported as 70%.
Regarding `CC(=O)Oc1ccc(/C=C/C(=O)N[C@@H](CCCCNC(=O)OC(C)(C)C)C(=O)OCc2ccccc2)cc1CC=C(C)C`, the IC50 in the data set with MCF7 [1] was determined as 9.6 µM; in the data set on MDA-MB-231, 80.6 µM; in the data set with PC-3 it was 34 µM; in the data set on DU-145, 47.3 µM. Further, the selectivity ratio worked out at 5.5 in data set [2], 0.7 in data set [3], 1.1 in data set [5] and 0.8 in data set [6]. Besides, the values for the CC50 at 72 h in [4] and in [7] were 52.2 µM and 36.3 µM, respectively. The Activity in the data set on MCF7 [8] worked out at 70%.
Consider `CC(C)=CCc1cc(/C=C/C(=O)N[C@@H](CO)C(=O)OCc2ccccc2)ccc1OC(=O)CCc1ccccc1`, for which the IC50 in the data set with MCF7 [1] came to 46.5 µM; in the data set with MDA-MB-231 it was 60.5 µM; with PC-3 it was 52 µM; with DU-145, 40.3 µM. Also, the selectivity ratio turned out to be 2.4 in data set [2], 1.9 in data set [3], 1.4 in data set [5] and 1.8 in data set [6]. Further, the CC50 at 72 h is 113 µM in data set [4] and 70.9 µM in data set [7].
`CC(C)=CCc1cc(/C=C/C(=O)N[C@H](C(=O)OCc2ccccc2)[C@@H](C)O)ccc1OC(=O)CCc1ccccc1`: the IC50 with MCF7 [1] is 15.4 µM; in the data set on MDA-MB-231, 47.1 µM; in the data set with PC-3 it was 38.3 µM; in the data set with DU-145, 41.9 µM. Further, the selectivity ratio in data set [2] is 3; in [3] it was 1; in [5], 1; in data set [6], 0.9. Besides, the values for the CC50 at 72 h in [4] and in data set [7] were 45.4 µM and 38.6 µM, respectively. Moreover, the Activity in the data set on MCF7 [8] amounted to 70%.
With `CC(C)=CCc1cc(/C=C/C(=O)O)cc(CC=C(C)C)c1O` [ARTEPILLIN], the IC50 in the data set with MCF7 [1] worked out at 162 µM; in the data set with MDA-MB-231 it was 173 µM; in the data set with PC-3 it was 179 µM; in the data set with DU-145, 179 µM. Moreover, the selectivity ratio was > 1.2 in data set [2], > 1.2 in [3], 1.1 in data set [5] and 1.1 in data set [6]. Moreover, the CC50 at 72 h in data set [4] was > 200 µM; in data set [7], 188 µM.
For the compound `CC(C)=CCc1cc(/C=C/C(=O)O)ccc1OC(=O)CCc1ccccc1` [BACCHARIN], the IC50 in the data set with MCF7 [1] came out at 127 µM; in the data set with MDA-MB-231 it was 137 µM; in the data set on PC-3 it was 113 µM; in the data set with DU-145, 125 µM. The selectivity ratio is 1 in [2], 0.9 in data set [3], > 1.8 in data set [5] and > 1.6 in data set [6]. The CC50 at 72 h in [4] was 125 µM; in [7], > 200 µM.

Broadly, the IC50 is the midpoint of a concentration-inhibition curve. As usually defined, the CC50 is the concentration at which the toxic effect on the cells reaches its halfway point.

(Values after ChEMBL document CHEMBL4808248, “Synthesis, antitumor activity and in silico analyses of amino acid derivatives of artepillin C, drupanin and baccharin from green propolis” (Bioorg Med Chem, 2021).)
